Tests used:
Type in all cases: cell-based, mouse
C2C12 cells [1] = assay: C2C12 myoblast proliferation (MTT method)
Description: C2C12 cells, a mouse myoblast line, were cultured in Dulbecco's Modified Eagle's Medium (DMEM)+10% fetal bovine serum (FBS)+1% penicillin/streptomycin (P/S). To validate the effect of MIF peptide, C2C12 cells (2×10^3 cells/ml) were placed in a 12 well cell culture dish and attached for 24 hours, and MIF2 or Ac-MIF2-NH2 peptide (1000 nM) was treated for 1 day to observe cell proliferation by MTT method. The medium was replaced every 2 days, and the cells were cultured at 37° C.
To validate cell proliferation, the culture medium of the cells was removed, the cells were washed with DMEM, 500 μl of MTT reagent (0.5 mg/ml) dissolved in phosphate buffered saline (PBS) was added to each well, and the cells were left at 37° C. for 1 hour. The reaction solution was removed, and 1000 μl of DMSO was added to each well. Purple formazan crystals were completely dissolved in DMSO, and the absorbance was measured at 540 nm.

C2C12 cells [2] = assay: Myodifferentiation: root canal formation and fusion index (Giemsa staining)
Description: When C2C12 cells were 70% grown, media were replaced with myodifferentiation medium added with MSTN protein (1 ng), Ac-MIF2-NH2 (1000 nM), and Ac-MIF2-NH2 (1000 nM)+MSTN protein (1 ng) from proliferation medium, followed by culture for 3 days.
When the cells grew more than 70% for differentiation of myoblasts into myocytes, they were cultured for 3 days by replacing with a differentiation medium (DMEM+2% FBS+1% P/S). The medium was replaced once daily, and the cells were cultured at 37° C.
The cell medium was removed, and the cells were washed with PBS. After washing, a methanol: PBS reagent in a 1:1 volume ratio was treated, followed by fixation for 2 minutes. Additionally, after a methanol: PBS reagent in a 2:1 volume ratio was added, fixation was followed for additional 2 minutes. After 2 minutes, 0.04% Giemsa reagent was added, and then the cells were left for 30 minutes, washed with PBS after 30 minutes, and observed under a microscope, with 3 photographs taken for each cell (300×). In the photographs taken, the number of fused nuclei in the root canal cells was counted, the number of nuclei of total cells was counted, and the number of fused nuclei was divided by the number of nuclei of the total cells to obtain the % value.

C2C12 cells [3] = assay: Scratch experiment, degree of cell recovery; conditions: C2C12 100% grown, 1000 nM peptide, 1 day
Description: When the C2C12 cells were 100% grown, cells were scratches on the surface, treated with 1000 nM MIF2 or Ac-MIF2-NH2 peptides, and cultured for 1 day, followed by observation for a degree of cell recovery.

C2C12 cells [4] = assay: Expression of myodifferentiation-related factors (real-time PCR, Western blot, immunocytochemistry)
Description: After adding 1 ml of TRIzol™ reagent, the cells were crushed using a sonicator. After centrifugation of the crushed sample (12,000 rpm, 10 min, 4° C.), the supernatant was transferred to a new tube, added with 200 μl of chloroform, and left at room temperature for 10 minutes. After 10 minutes, centrifugation (12,000 rpm, 10 min, 4° C.) was performed, yielded a transparent supernatant. Next, 500 μl of isopropanol was added, the mixture was left for 10 minutes, and centrifugation was performed to obtain RNA pellets. After washing by adding 70% ethanol (distilled water treated with ethanol+diethylpyrocarbonate (hereinafter referred to as DEPC)) to the RNA pellets, complete removal and drying were followed. The dried transparent RNA was added with DEPC-treated distilled water and then stored at −80° C. Total RNA volume was measured by nanodrop, and the 18s and 28s bands were detected in 1.2% agarose gel. cDNA was synthesized with 2 μg of total RNA, random hexamer primers, and reverse transcriptase (25° C.: 10 min, 37° C.: 120 min, 85° C.: 5 min).
Real-time PCR (RT-PCR) was performed for detecting gene expression. For observation of real-time gene expression, gene expression was analyzed using the Power SYBR Green PCR Master Mix, which includes fluorescent materials of SYBR green (7500 Real-time PCR system). The PCR primer was designed with Primer 3 software (http://frodo.wi.mit.edu) according to the nucleotide sequence secured from NCBI GenBank. PCR was performed 40 times at 95° C. for 10 minutes, again at 95° C. for 33 seconds, at gene primer temperature (tm) for 33 seconds, and at 72° C. for 33 seconds. Gene expression values were analyzed through the analysis of c(t) values obtained through real-time PCR analysis (fold change 2-ΔΔCt formula). Setting the gene expression value of the untreated cells to 1, the gene expression value of the treated cells was calculated. In the analysis of gene c(t) values, normalization was conducted with the glyceraldehyde-3-phosphate dehydrogenase (GAPDH).
The medium of cultured C2C12 cells was removed and washed once with PBS. The washed cells were treated with 4% formaldehyde (Sigma), fixed for 15 minutes, then washed using PBS, added with 0.2% trypton X-100 (Sigma), and left for 5 minutes. After washing again using PBS, adding 1% normal goat serum, and leaving for 30 minutes, the primary antibody (MYOD, myogenin (MYOG): myosin light chain (MYL2); 1:50) was added to carry out a reaction at 4° C. for 14 hours. The antibodies were removed, washing was performed 3 times with PBS for 10 minutes, and then the cells were left with secondary antibody (Alexa Fluor 488 goat anti-Mouse & rabbit SFX kit t) for 1 hour. After 1 hour, the antibodies were removed, washing was performed with PBS for 10 minutes, the nuclei were stained with 4′,6-diamidino-2-phenylindol (DAPI), and the expression of the proteins was observed using fluorescence microscopy.
(1) The medium of cultured C2C12 cells was removed, followed by washing with PBS. After adding LIPA buffer and protease inhibitor to the washed cells, the proteins included in the supernatant were collected after centrifugation for 10 minutes at 12000 rpm. 40 μg of the extracted proteins were subjected to electrophoresis in 8 to 10% acrylamide gel and then transferred to a polyvinylidene fluoride (PVDF) membrane (Milipore). These were blocked with 3% skim milk or bovine serum albumin (BSA) at room temperature for 1 hour. Afterwards, primary antibody diluted in 1% skim milk or BSA (Pax7; 1:500, MYOD; 1:500, MYOG; 1:400, MYL2; 1:1000, MYH; 1:500, MSTN; 1:1000, β-actin; 1:1000, MuRF1; 1:400, and Atrogin; 1:1:400) was added and reacted at 4° C. for over 16 hours. After 16 hours, cells were washed three times with TBST (Tris-buffered saline with Tween 20) and reacted with secondary antibody with horseradish peroxidase (HRP) conjugated at room temperature for 1 hour. […]

[5] = C2C12 differentiation, versus control
[6] = C2C12 myodifferentiation, FIG. 6

Row | Substance | proliferation of cells compared to untreated cells (C2C12 cells [1]; C2C12, MSTN protein in proliferation medium, FIG. 3) | differentiation of cells compared to untreated cells (C2C12 cells [2]; C2C12, MSTN protein in differentiation medium, FIG. 3) | root canal formation compared to untreated cells (C2C12 cells [2]; C2C12, differentiation medium, 3 days) | increase in cell proliferation compared to cells without peptide treatment (C2C12 cells [1]; C2C12, peptide 1000 nM, 1 day, MTT, FIG. 4) [%] | increase in scratch recovery degree compared to untreated cells (C2C12 cells [3]) [%] | increase in fusion index compared to untreated cells (C2C12 cells [2]; C2C12, differentiation medium with peptide, 3 days) [%] | expression of MSTN mRNA and proteins (C2C12 cells [4]; [5]) | mRNA and protein expression of MYOD, MYOG, MYL2, and MYH (C2C12 cells [4]; [5]) | expression of ACVRIIB mRNA (C2C12 cells [4]; [6]) | expression of MuRF1 and ACVRIIB proteins (C2C12 cells [4]; [6])
1 | MSTN protein: myostatin protein that inhibits the proliferation and differentiation of myoblasts [reference compound] | reduced | reduced | reduced |  |  |  |  |  |  | 
2 | VDFEAGDWFW [MIF2] |  |  |  | 6 | 22 | 12 | did not show any significant differences | increased | decreased | decreased
